# Results taken from PubChem BioAssay AID2060350 (Molecular Pharmacology Branch, DTP, NCI, 2025).
# Values joined by “and” are separate entries in the source; they are usually repeats but may differ in a detail not shown here. Identical values can stand only once.
# Test system: PDC 521955-158-R6-J3 spheroids, viability
# Experiment: Anticancer human tumor 521955-158-R6-J3-PDC patient-derived pancreatic carcinoma cell line growth inhibition [TAK]
# Conditions: spheroids with HUVEC and MSC; for viability, T/C: stronger effect = lower value
# Excerpt: Combinatorial screen of targeted agents with TAK-243 and ipatasertib in multi-cell type tumor spheroids
# A high-throughput screen of multi-cell type tumor spheroids was designed to identify active combinations of targeted small molecules and TAK-243 or ipatasertib. Complex spheroids include a stromal component modeled by human endothelial cells (HUVEC) and fibroblasts modeled by human mesenchymal stem cells (MSCs). The concentration ranges selected for each drug and investigational agent were based upon clinically achievable concentrations if the clinical Cmax of the agent was known.
# Compounds. The drugs and investigational agents: TAK-243 (785004), ipatasertib (767898), everolimus (733504), selumetinib (741078), bortezomib (756655), trametinib (758246), ixazomib (758254), vemurafenib (761431), dabrafenib (764134), sapanisertib (764658), alpelisib (765974), and copanlisib (816437), were obtained from the National Cancer Institute (NCI) Developmental Therapeutics Program Chemical Repository. The FDA-approved anticancer drug set is available from the NCI Developmental Therapeutics Program. […] The stock solutions were prepared in dimethyl sulfoxide (DMSO, Sigma-Aldrich, St. Louis, MO, cat. D2650) at 800-fold the tested concentration and stored at -70 degrees C prior to their use. All drugs and investigational agents were tested over a range starting from a high concentration at or near the clinical Cmax and decreasing in half-log increments. If the clinical Cmax for an agent had not been determined, the highest concentration tested was 10 microM.
# NCI60 Cell Culture. NCI60 cell lines were obtained from the NCI Developmental Therapeutics Program Tumor Repository. For each lot of cells, the Repository performed Applied Biosystems AmpFLSTR Identifiler testing with PCR amplification to confirm consistency with the published Identifier STR profile for each cell line. Cells were kept in continuous culture for no more than 20 passages. The optimal seeding densities for each of the cell lines at each time point assessed were determined prior to performing the concentration response studies. Briefly, the NCI60 human tumor lines were grown as monolayers in RPMI 1640 medium supplemented with 10% FBS and 2 mmol/L L-glutamine.
# An additional 2 lines were from the NCI60 cell line panel including melanomas, MALME-3M and SK-MEL-2. Pooled donor human umbilical vein endothelial cells (HUVEC, Lonza, cat. CC-2519) and human mesenchymal stem cells (hMSC, Lonza, cat. PT-2501) were purchased from Lonza (Walkersville, MD).
# PDMR cell lines were grown in complete medium (DC medium): Dulbecco's modified Eagle's medium (DMEM)/F12 supplemented with 5% fetal bovine serum (FBS), 2 mM L-glutamine, 100 U/mL penicillin and 100 µg/ml streptomycin, 0.4 µg/ml hydrocortisone, 10 ng/ml epidermal growth factor (EGF) recombinant human protein, 24 µg/mL adenine, and 0.1 mg/mL primocin. During culture from frozen stock vials, PDMR cells were cultured in the same medium containing 10 µM Y-27632 (see Table 3). The PDCs were cultured in complete DMEM/F12 media without 10 microM Y-27632 dihydrochloride for at least two passages prior to the screen. The pooled donor HUVEC and hMSC were cultured in endothelial cell growth medium 2 (PromoCell, Heidelberg, Germany, cat. C-22011) and mesenchymal stem cell growth medium 2 (PromoCell, cat. C-28009), respectively. For all experiments, HUVEC and hMSC were used at passages </=5.
# For the pre-screen, cell seeding densities were determined from a titration spanning the range from 5,000 to 313 cells per well. The mct-spheroids including 60% malignant cells, 25% HUVEC and 15% MSC dispensed as a mixture into U-bottom Ultra-Low Attachment 384-well plates (Corning, NY)
# High-throughput Drug Combination Screening.
# Prior to their inoculation into 384-well plates, malignant cells, HUVEC, and hMSC were removed from T flasks using TrypLE express (Thermo Fisher Scientific, cat. 12605036) and harvested by centrifugation for 5 min at 233 x g. […]
# 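Also: spheroids exposed to drugs for 7 days before readout.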
# 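For viability, T/C in this document: 100% = DMSO vehicle control viability.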
SMILES,IC50 (curve of compound),"viability, T/C (compound 0.0316 µM)","viability, T/C (compound 0.1 µM)","viability, T/C (compound 0.316 µM)","viability, T/C (compound 1 µM)","viability, T/C (compound 0.000316 µM)","viability, T/C (compound 0.001 µM)","viability, T/C (compound 0.00316 µM)","viability, T/C (compound 0.01 µM)",other results
CC(C)(C)c1nc(-c2cccc(NS(=O)(=O)c3c(F)cccc3F)c2F)c(-c2ccnc(N)n2)s1,> 10000 nM,111% and 97.3%,121% and 111%,135% and 114%,116% and 111%,,,,,"viability, T/C (compound 3.16 µM): 108% and 98.3%; viability, T/C (compound 10 µM): 139% and 118%"
CC(C)CC(NC(=O)CNC(=O)c1cc(Cl)ccc1Cl)B1OC(=O)CC(CC(=O)O)(C(=O)O)O1 (stereo not drawn),49.8 nM and 46.2 nM,75.9% and 69.7%,10.2% and 9.97%,,,105% and 101%,101% and 102%,110% and 100%,114% and 107%,
CC(C)NCC(C(=O)N1CCN(c2ncnc3c2C(C)CC3O)CC1)c1ccc(Cl)cc1 (stereo not drawn),,,,,,,,,,"viability, T/C (compound 0.3 µM): 93.8% [middle of 10 runs]; IC50 (compound alone, run of 02/20/2020): > 30000 nM; IC50 (compound alone, run of 03/19/2020): > 30000 nM"
CC(C)n1nc(-c2ccc3oc(N)nc3c2)c2c(N)ncnc21,> 100 nM,83.2% and 81.7%,73.8% and 70.4%,,,93.6% and 99.9%,95% and 91.3%,86% and 98.5%,85.3% and 94.8%,
COC1CC2CCC(C)C(O)(O2)C(=O)C(=O)N2CCCCC2C(=O)OC(C(C)CC2CCC(OCCO)C(OC)C2)CC(=O)C(C)C=C(C)C(O)C(OC)C(=O)C(C)CC(C)C=CC=CC=C1C (stereo not drawn),> 100 nM,84.9% and 90.9%,84.3% and 82.4%,,,93.2% and 99%,107% and 78.7%,105% and 85.4%,100% and 94.5%,
COc1c(OCCCN2CCOCC2)ccc2c3n(c(=NC(=O)c4cnc(N)nc4)nc12)CCN3,76.2 nM and 28.1 nM,61.2% and 49.2%,47.5% and 35.9%,30.7% and 23.5%,23.3% and 18.5%,,,85.3% and 76.8%,79.2% and 62.1%,

# Second part, led by results:
IC50 (curve of compound),SMILES,"viability, T/C (compound 0.0316 µM)","viability, T/C (compound 0.1 µM)","viability, T/C (compound 0.316 µM)","viability, T/C (compound 1 µM)","viability, T/C (compound 0.000316 µM)","viability, T/C (compound 0.001 µM)","viability, T/C (compound 0.00316 µM)","viability, T/C (compound 0.01 µM)",other results
26.2 nM and 29.5 nM,CC(=O)Nc1cccc(-n2c(=O)n(C3CC3)c(=O)c3c(Nc4ccc(I)cc4F)n(C)c(=O)c(C)c32)c1,,,,,,,,,"viability, T/C (compound 94.9 pM): 98.2% and 112%; viability, T/C (compound 0.0003 µM): 100% and 90.8%; viability, T/C (compound 0.000949 µM): 98.2% and 92.1%; viability, T/C (compound 0.003 µM): 94.2% and 82%; viability, T/C (compound 0.00949 µM): 72.4% and 68.3%; viability, T/C (compound 0.03 µM): 47% and 47.1%"
7.56 nM and > 10 nM,CC(C)CC(NC(=O)C(Cc1ccccc1)NC(=O)c1cnccn1)B(O)O (stereo not drawn),,,,,91.6% and 103%,108% and 93.6%,111% and 87.4%,33.2% and 102%,"viability, T/C (compound 31.6 pM): 101% and 120%; viability, T/C (compound 0.0001 µM): 97.6% and 107%"
> 100000 nM,CCCS(=O)(=O)Nc1ccc(F)c(C(=O)c2c[nH]c3ncc(-c4ccc(Cl)cc4)cc23)c1F,,,92.9% and 82.9%,101% and 67%,,,,,"viability, T/C (compound 3.16 µM): 88.1% and 85%; viability, T/C (compound 10 µM): 101% and 75%; viability, T/C (compound 31.6 µM): 109% and 51.8%; viability, T/C (compound 100 µM): 99.2% and 114%"
> 10000 nM,Cc1nc(NC(=O)N2CCCC2C(N)=O)sc1-c1ccnc(C(C)(C)C(F)(F)F)c1 (stereo not drawn),82.3% and 93.5%,87.3% and 82%,73.3% and 81.9%,68.2% and 77.4%,,,,,"viability, T/C (compound 3.16 µM): 72.5% and 67%; viability, T/C (compound 10 µM): 58.3% and 54.9%"
1800 nM and > 3000 nM,Cn1cnc2c(F)c(Nc3ccc(Br)cc3Cl)c(C(=O)NOCCO)cc21,,,,,,,,,"viability, T/C (compound 0.00949 µM): 99.2% and 99.6%; viability, T/C (compound 0.03 µM): 88.9% and 88%; viability, T/C (compound 0.0949 µM): 77.6% and 83%; viability, T/C (compound 0.3 µM): 85.5% and 82.2%; viability, T/C (compound 0.949 µM): 56.9% and 70.8%; viability, T/C (compound 3 µM): 41.5% and 53.7%"
